Each structure is given as a SMILES string.

Assay [1] relates to Lysyl oxidase like 1 (LOXL1). The assay can be described thus: TLDA gene expression in NHF: LOXL1. Type of assay: cell-based, human. Particulars: Vit C 50 μg/mL (positive control), control = 1. The protocol: (§1) The cell culture medium is removed and 250 μL of RLT lysis buffer (provided in the Nucleospin RNA trace kit, Macherey-Nagel) is added. The cells are scraped with a Cell Scraper and then the cell lysate is recovered in a 1.2 mL deepwell (provided in the Nucleospin RNA kit). The total RNAs are extracted according to the defined protocols.
(§2) The total RNA solutions obtained are assayed, and their quality checked, using a microplate reader, the spectrostarNANO (BMG Labtech) coupled to the MicrolabSTAR. This apparatus is connected to the computer controlling the Robotics platform and has the specific software for the analysis of the results (MARS software). The technique requires a 384-well microplate (LoBase), a positive control (RNA 250, AM7155, Thermofisher) to validate the pipetting performed by the robot as well as the values generated by the spectrostarNANO reader. • Synthesis of complementary DNA […]
(§3) Real-time quantitative PCR can be exploited if its efficiency is between 90% and 110%. For each sample, the number of cycles at which the signal appears is determined by the SDS 2.3 software. […]
(§4) In the TLDA RT-PCR method, quantification is performed using the comparative method of ΔΔCt. The relative quantification (RQ) values obtained correspond to the amplitude level (x times more or less than the control) of the expression compared with our control, here the non-irradiated. […]

In another assay the test system is Elastin (ELN). Kind of assay: TLDA gene expression in NHF: ELN. Type of assay: cell-based, human. Particulars: Vit C 50 μg/mL (positive control), control = 1. As to the method:
as §1, §2, §3, §4

Assay [2] has as its system Matrix Metalloproteinase 3 (MMP3). The assay can be described thus: TLDA gene expression in NHF: MMP3. The settings on record: Vit C 50 μg/mL (positive control), control = 1. It counts as cell-based, human. As to the method: as §1, §2, §3, §4
Another assay has as its system Emilin 1 (Emilin1). Kind of assay: TLDA gene expression in NHF: Emilin1. It counts as cell-based, human. As to the method: as §1, §2, §3, §4
A further assay has as its system Collagen 1 (COL1A1). Kind of assay: TLDA gene expression in normal human fibroblasts (NHF): COL1A1. It counts as cell-based. The protocol:
as §1, §2, §3, §4

The test system of another assay is Collagen 5 (COL5A1). The assay can be described thus: TLDA gene expression in NHF: COL5A1. Type of assay: cell-based, human. The protocol: as §1, §2, §3, §4
For assay [3], the system named is Procollagen C endopeptidase enhancer (PCOLCE). Kind of assay: TLDA gene expression in NHF: PCOLCE. It counts as cell-based, human. The settings on record: Vit C 50 μg/mL (positive control), control = 1. As to the method:
as §1, §2, §3, §4

The next assay relates to Collagen 3 (COL3A1). The assay can be described thus: TLDA gene expression in NHF: COL3A1. Type of assay: cell-based, human. As to the method:
as §1, §2, §3, §4

The next assay has as its system Fibrillin 1 (FBN1). The assay can be described thus: TLDA gene expression in NHF: FBN1. It counts as cell-based, human. The settings on record: Vit C 50 μg/mL (positive control), control = 1. The protocol:
as §1, §2, §3, §4

Where [4] appears, read: Vit C 50 μg/mL (positive control), control = 1.

On to `O=C1O[C@H]([C@@H](O)CO)C(O)=C1O` [Vit C], for which the “LOXL1 expression, RQ” value in assay [1] stood at 1.202. Moreover, the “ELN expression, RQ” value in the assay with Elastin (ELN) is on record as 1.016. Also, the “MMP3 expression, RQ” value in assay [2] was determined as 1.205. Also, the “Emilin1 expression, RQ” value in the assay with Emilin 1 (Emilin1) (setting [4]) is reported as 2.509. Further, the “increase of Emilin 1 expression” value in the assay with Emilin 1 (Emilin1) (Vit C (50 μg/mL)) is “+151%”. In addition, the “COL1A1 expression, RQ” value in the assay with Collagen 1 (COL1A1) (setting [4]) is 3.471. Moreover, in the assay with Collagen 1 (COL1A1) (Vit C (50 μg/mL)), the “increase of Collagen 1 expression” value was “+247%”. In addition, the “COL5A1 expression, RQ” value in the assay with Collagen 5 (COL5A1) (setting [4]) amounted to 1.911. In addition, the “increase of Collagen 5 expression” value in the assay with Collagen 5 (COL5A1) (Vit C (50 μg/mL)) is on record as “+91%”. The “PCOLCE expression, RQ” value in [3] was determined as 1.156. Moreover, in the assay with Collagen 3 (COL3A1) (setting [4]), the “COL3A1 expression, RQ” value amounted to 2.599. Also, in the assay on Collagen 3 (COL3A1) (Vit C (50 μg/mL)), the “increase of Collagen 3 expression” value was “+160%”. Further, the “FBN1 expression, RQ” value in the assay on Fibrillin 1 (FBN1) turned out to be 0.989.

For the origin of these results see patent US20210369595A1, “Cosmetic composition comprising an aqueous extract of rose fruit” (L V M H RECHERCHE, priority 2018, published 2021).
